`CCCc1ccc(C)cc1` and `CCCc1cccc(C)c1` are within 0.2 log units of each other in logP: 4.6 for the first, 4.67 for the second.

`CCCc1ccccc1C` and `CCc1cccc(C)c1C` are within 0.2 log units of each other in logP: 4.5 for the first, 4.34 for the second.

`CCc1ccc(C)c(C)c1` and `CCc1cc(C)ccc1C` are within 0.2 log units of each other in logP: 4.5 for the first, 4.43 for the second.

Compared with `CCCCCCCCCc1ccccc1`, `CCC(C)c1ccccc1` (stereo unspecified) is lower in logP: 7.11 for the first, 4.57 for the second.

Going from `CCc1cccc(CC)c1` to `CCc1cccc(C)c1`, the logP falls from 4.57 to 3.98.

`CCc1c(C)cccc1C` and `CCc1ccc(C)cc1C` are within 0.2 log units of each other in logP: 4.28 for the first, 4.47 for the second.

`Cc1ccccc1C(C)C` and `Cc1cccc(C(C)C)c1` are within 0.2 log units of each other in logP: 4.38 for the first, 4.5 for the second.

`CCc1ccc(CC)cc1` and `CCc1cc(C)cc(C)c1` are within 0.2 log units of each other in logP: 4.58 for the first, 4.55 for the second.

— the OPERA property sets (Mansouri et al. 2018)
